US20110151469A1, “INTERFERON EPSILON (IFNE1) AS A MARKER FOR TARGETED CANCER THERAPY” (PIRAMAL LIFE SCIENCES LIMITED, priority 2008, published 2011)

Key:
[1] = tested on: IFNE1 gene expression in HCT116 xenografts; experiment: Real Time Quantitative Reverse Transcriptase PCR of IFNE1 in HCT116 xenografts; type: in vivo, SCID mice; conditions: normalized to actin
Experimental: Colon carcinoma (HCT-116) cells were injected into severe combined immunodeficient (SCID) mice intraperitoneally. Xenografts were allowed to grow, typically for 7 days until the tumors reached a size of 5×5 mm before therapeutic agent administration. A total of 56 animals were used for the study. Animals that were treated with two consecutive day administrations of the agent/vehicle were considered as the acute treated group. The acute treated group of animals consisted of 8 sham treated, 10 Flavopiridol (2.5 mg/kg) treated, and P276-00 (35 mg/kg) treated mice. A similar group of animals was treated with either vehicle or agent for 6-7 days consecutively and was considered as the chronic treated group, as discussed below. The differences in the concentrations used reflect the differences in the IC50 values of the two therapeutic agents.
At the end of the acute/chronic treatments, the xenografts were excised from the animals and RNA was prepared using Trizol reagent (Sigma, USA) as per the manufacturer's protocol. Briefly, xenograft tissues were homogenized under liquid nitrogen and resuspended in Trizol ([…] tissue) followed by chloroform extraction. The RNA was precipitated in isopropanol and the pellet was washed using 70% ethanol. RNA samples thus obtained were resuspended in RNase-DNase free water. Quality and quantity of RNA was measured by spectrometry using ND-1000 spectrometer (Nanodrop, Wilmington, Del., USA).
IFNE1 expression in tumor tissues, after exposure to P276-00 or Flavopiridol, was further validated by RTQ-PCR. The primer sequences used for PCR analysis are as follows:
The actin (ACTB) gene is used as control for relative quantification, and the following primer sequences were used for its PCR analysis:
An aliquot of the RNA samples used for the microarray study was also used for Quantitative Real Time Reverse TRasncriptase PCR (QRT-PCR) analysis. […]

[2] = tested on: IFNE1 mRNA in HCT116 cells; experiment: QRT-PCR of IFNE1 transcript level in HCT116 cells treated with CDK and non-CDK inhibitors; type: cell-based, human; conditions: 6 hours, P276-00 250 nM, Flavopiridol 200 nM, Fascaplysin 500 nM, Roscovitine 20 μM, Olomoucine 180 μM, DRB 50 μM, 5-Fluorouracil 800 nM, Camptothecin 30 nM, Etoposide 3 μM, Vinblastin 1.5 μM, Quercitin 750 nM, Paclitaxel 600 nM, Doxorubicin 100 nM
Experimental: HCT116 cells were treated with various CDK inhibitors [P276-00 (250 nM), Flavopiridol (200 nM), Fascaplysin (500 nM), Roscovitine (20 μM), Olomoucine (180 μM), 5,6-dichloro-1-beta-D-ribofuranosylbenzimidazole (DRB, 50 μM)] and non-CDK inhibitors [5-Fluorouracil (800 nM), Camptothecin (30 nM), Etoposide (3 μM), Vinblastin (1.5 μM), Quercitin (750 nM), Paclitaxel (600 nM), Doxorubicin (100 nM)] for 6 hours. The level of IFNE1 mRNA was estimated using Real Time RT-PCR. Using Actin gene for normalization, relative IFNE1 expression level was plotted as log fold change.
To study if IFNE1 expression is a result of CDK inhibition, HCT116 cells were treated with a variety of CDK and non-CDK inhibitors and IFNE1 transcript level were measured using quantitative QRT-PCR. HCT116 cells were chosen for this assay because IFNE1 level seems to be most regulated in this cell line. The cells were treated with a variety of CDK inhibitors [P276-00 (250 nM), Flavopiridol (200 nM), Fascaplysin (500 nM), Roscovitine (20 μM), Olomoucine (180 μM), 5,6-dichloro-1-beta-D-ribofuranosylbenzimidazole (DRB) (50 μM)] and non-CDK inhibitors [5-Fluorouracil (800 nM), Camptothecin (30 nM), Etoposide (3 μM), Vinblastin (1.5 μM), Quercitin (750 nM), Paclitaxel (600 nM), Doxorubicin (100 nM)] for 6 hours and the IFNE1 transcript level were estimated. All inhibitors were purchased from Sigma and used at IC50 values described in literature.

[3] = tested on: IFNE1 mRNA in HL-60 cells; experiment: QRT-PCR of IFNE1 level in HL-60 cells treated with P276-00 or Flavopiridol; type: cell-based, human; conditions: at most time points (3, 6, 12, 24 hours)
Experimental: (§1) FIGS. 3A, 3B and 3C show expression of IFNE1 in different cancer cell lines treated with P276-00 and Flavopiridol. The different cell lines were treated with the agent for the indicated times and the level of IFNE1 mRNA were estimated using Real Time RT-PCR. Using the Actin gene for normalization, IFNE1 expression level was plotted as log fold change relative to the signal from the control untreated cells.
(§2) The expression of IFNE1 in response to P276-00 or Flavopiridol was also studied in different cancer cell lines such as HCT116, HL-60 (leukemia) and Calu-1. HCT116, Calu-1, H460 and HL-60 cells were obtained from ATCC and were maintained in culture medium with 10% fetal bovine serum. P276-00 and Flavopiridol were synthesized in-house and 10 mM stocks in DMSO were used for the assays. HCT116 (FIG. 3A) cells in culture were treated with P276-00 and Flavopiridol at 200 nM and 250 nM respectively for 6 hours, 12 hours and 24 hours. HL-60 (FIG. 3B) cells were treated with 300 nM of P276-00 and […] of Flavopiridol for 3 hours, 6 hours, 12 hours and 24 hours and Calu-1 (FIG. 3C) cells were treated with 1.2 μM of P276-00 and 450 nM of Flavopiridol for 4 hours, 8 hours, 12 hours, 24 hours and 48 hours. RNA was prepared from the samples and QRT-PCR was performed to estimate level of IFNE1.

[4] = tested on: IFNE1 mRNA in HCT116 cells; experiment: QRT-PCR of IFNE1 level in HCT116 cells treated with P276-00 or Flavopiridol; type: cell-based, human; conditions: for IFNE1 level relative to control untreated cells: at most time points (6, 12, 24 hours)
Experimental: as §1, §2

**Q.** With `CN1CC[C@H](c2c(O)cc(O)c3c(=O)cc(-c4ccccc4Cl)oc23)[C@H](O)C1` [Flavopiridol] as the compound, how does the “xenografts with IFNE1 up-regulation by QRT-PCR” value ([1]; acute or chronic not distinguished) read?
**A.** most of the xenografts tested

**Q.** And the “change of IFNE1 mRNA level” value [2]?
**A.** upregulation

**Q.** What about the “IFNE1 level relative to control untreated cells” value [3] of the same compound?
**A.** significant increase

**Q.** What about the “IFNE1 up-regulation, log fold change relative to control untreated cells” value ([4]; 12 hours, normalized to Actin) of the same compound?
**A.** up to 7 log fold changes

**Q.** And the “IFNE1 level relative to control untreated cells” value [4]?
**A.** significant increase

**Q.** Which “xenografts with upregulated IFNE1 level by QRT-PCR” value ([1]; acute treatment) does the source give for `CN1CC[C@@H](c2c(O)cc(O)c3c(=O)cc(-c4ccccc4Cl)oc23)[C@@H]1CO.Cl` [Compound P276-00, (+)-trans-2-(2-Chloro-phenyl)-5,7-dihydroxy-8-(2-hydroxymethyl-1-methyl-pyrrolidin-3-yl)-chromen-4-one hydrochloride] here?
**A.** 3 of the 6

**Q.** And the “xenografts with upregulated IFNE1 level by QRT-PCR” value ([1]; chronic treatment)?
**A.** most of the xenografts tested

**Q.** And the “change of IFNE1 mRNA level” value [2]?
**A.** upregulation

**Q.** And the “IFNE1 level relative to control untreated cells” value [3]?
**A.** significant increase

**Q.** What about the “IFNE1 level relative to control untreated cells” value [4] of the same compound?
**A.** significant increase
